Measured values taken from patent US20190099394A1, “METHODS OF IMPROVING MOTOR FUNCTION USING KETONE SUPPLEMENTATION” (priority 2016, published 2019).

Legend:
Sprague-Dawley rats = experiment: accelerating rotarod test, four month old Sprague-Dawley rats; assay type: in vivo, rat; details: for motor function (accelerating rotarod) compared to the control group: 5 g/kg once daily oral gavage or diet, at both 24 hours and 7 days after dietary treatment, FIG. 1; for time able to remain on the rotarod relative to controls fed a standard diet only: 24 hours and 7 days, FIG. 2
Text: Four month old Sprague-Dawley rats were first acclimated to oral gavage with administration of tap water once daily for a period of 5 days. The rats were then divided into 5 groups, and fed either a standard diet (SD), a ketogenic diet (KD), or a standard diet supplemented with a once daily oral gavage of a ketone supplement (Table 1). The ketone supplement was selected from the ketone ester 1,3-butanediol-acetoacetate diester (SD+KE), the ketone salt β-hydroxybutyrate mineral salt (SD+KS), or β-hydroxybutyrate mineral salt and a medium chain triglyceride (SD+KSMCT). Ketone supplements were provided at a dose of 5 g/kg of body weight. Each group of animals was maintained on the respective diets for 7 days. The animals were evaluated for motor performance prior to the beginning of dietary treatment, 24 hours after treatment, and after 7 days of dietary treatment.
Motor performance was evaluated using the accelerating rotarod test on a Rota Rod
Rotamex 5 (Columbus Instruments). The rats were placed on the rod of the accelerating rotarod and the time the animals remained on the rod was measured; the rotarod was set to accelerate to 40 rpm over 180 seconds. Prior to the administration of a test, animals were trained on the rotarod for 5 consecutive days. Each day of training consisted of 3 trials, with a 2 minute rest period between each trial. Animals were placed on the rotarod and timed until they fell from the rotating rod.
The ketone ester, 1,3-butanediol-acetoacetate diester, was synthesized as previously described (Agostino et al., Am J Physiol; 304(10): R829-R836 (2013)). The ketone salt, β-hydroxybutyrate mineral salt (Na^+/K^+-βHB mineral salt) was mixed into a 50% solution by adding approximately 375 mg/g of pure βHB with 125 mg/g of Na^+/K^+. Accordingly, each dose of the mineral salt was equal to about 1000-1500 mg of βHB, depending on the weight of the animal. Both the ketone ester and the ketone salt were developed and synthesized in collaboration with SavInd, Inc. Pharmaceutical grade medium chain triglyceride (MCT) oil (about 65% caprylic triglyceride) was purchased from Now Foods (Bloomingdale, Ill., USA). MCT was mixed in a 1:1 ratio with β-hydroxybutyrate mineral salt to obtain a ketone salt with MCT, and in a 1:1 ratio with 1,3-butanediol-acetoacetate diester to obtain […] with MCT.

WAG/Rij rats = experiment: accelerated rotarod test, WAG/Rij rats; assay type: in vivo, rat; details: 2.5 g/kg total oral gavage daily for 7 days, about 45 minutes after treatment, FIG. 6 and FIG. 7
Protocol: WAG/Rij rats were first acclimated to oral gavage with administration of tap water once daily for a period of 3 days. About 45 minutes after the water gavage on the third day, the animals performed the accelerated rotarod test to establish a baseline. After three trials on the rotarod, blood samples were taken to measure baseline glucose and ketone body levels (blood samples were collected about 60 minutes after the gavage).
One day later, the rats were divided into 6 groups, and given an oral gavage supplement selected from water, the ketone ester 1,3-butanediol-acetoacetate diester (KE), the ketone ester with medium chain triglyceride (KEMCT), the ketone salt β-hydroxybutyrate mineral salt (KS), the ketone salt with medium chain triglyceride (KSMCT), or a combination of the ketone ester and the ketone salt (KEKS) (Table 3). Supplements containing the ketone ester or the ketone salt alone were provided at a dose of 2.5 g/kg of body weight. For supplements containing two components (e.g., a ketone ester with MCT, a ketone salt with MCT, a ketone ester with a ketone salt), each component was provided at a dose of 1.25 g/kg of body weight (for a total dosage of 2.5 g/kg). The animals were treated every day for 7 days.
About 45 minutes after the 7th treatment, the rats were evaluated on the accelerated rotarod test. […]

[1] = tested on: glucose transporter type 1 (G1D)-deficient mice; experiment: rotarod test, G1D mice; assay type: in vivo; details: for motor performance on the rotarod test: 6 weeks of feeding
Text: (§1) A group of 48 G1D mice, aged 2-5 months old, were fed for 10 weeks with either a standard rodent diet (SD), a ketogenic diet (KD), a standard diet supplemented with 10% ketone ester (SD+KE) or a standard diet supplemented with 20% ketone mineral salt (SD+KS).

[2] = tested on: glucose transporter type 1 (G1D)-deficient mice; experiment: hanging wire test, G1D mice; assay type: in vivo; details: fed for 10 weeks, FIG. 9
Text: as §1

Molecule	motor function (accelerating rotarod) compared to the control group (Sprague-Dawley rats)	time able to remain on the rotarod relative to controls fed a standard diet only (Sprague-Dawley rats)	motor function (accelerated rotarod) (WAG/Rij rats)	motor performance on the rotarod test [1]	performance on the rotarod test vs baseline levels ([1]; by 4 weeks of feeding, FIG. 8)	motor function on the rotarod test ([1]; 10 weeks of feeding)	course of improvement on the hanging wire test [2]	strength endurance (hanging wire test) [2]
CC(=O)CC(=O)OCCC(C)OC(=O)CC(C)=O (stereo not drawn) [ketone ester, 1,3-butanediol-acetoacetate diester]	improvement in motor function	able to remain on the rotarod for longer periods of time	not sufficient to improve motor function	increase in motor performance	significant increase in performance on the rotarod test	–	–	–
β-hydroxybutyrate mineral salt [ketone salt]	improvement in motor function	able to remain on the rotarod for longer periods of time	not sufficient to improve motor function	increase in motor function	–	increase in motor function	rapid improvement beginning at week 1	improved
